Assay results as given in the supplement of paper PMC10307832.

Assays:
Assay in all cases: relative viability (nuclei count vs DMSO), 5 days (fraction); higher = more cells survive
[1] = compound: CN[C@@H]1C[C@H]2O[C@@](C)([C@@H]1OC)n1c3ccccc3c3c4c(c5c6ccccc6n2c5c31)C(=O)NC4 [Staurosporine] + CS(=O)(=O)N1CCN(Cc2cc3nc(-c4cccc5[nH]ncc45)nc(N4CCOCC4)c3s2)CC1 [Pictilisib] (partner 1 µM)
Summary of the method: (§1)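 Five library-drug doses in √10 steps were combined with a fixed anchor-drug dose, or a single drug was given alone, by pin tool to lung cancer cell lines in 1536-well plates the day after seeding. Nuclei were stained and counted after 5 days. Relative viability is the nuclei count in treated wells over that in vehicle wells, taken as the median of duplicate plates.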

Sulindac + Pictilisib = compound: CC1=C(CC(=O)O)c2cc(F)ccc2/C1=C\c1ccc([S+](C)[O-])cc1 [Sulindac] + CS(=O)(=O)N1CCN(Cc2cc3nc(-c4cccc5[nH]ncc45)nc(N4CCOCC4)c3s2)CC1 [Pictilisib] (partner 1 µM)
Summary of the method: as §1

[2] = compound: O=c1[nH]cc(F)c(=O)[nH]1 [5-Fluorouracil] + CS(=O)(=O)N1CCN(Cc2cc3nc(-c4cccc5[nH]ncc45)nc(N4CCOCC4)c3s2)CC1 [Pictilisib] (partner 1 µM)
Summary of the method: as §1

Sulindac + Decitabine = compound: CC1=C(CC(=O)O)c2cc(F)ccc2/C1=C\c1ccc([S+](C)[O-])cc1 [Sulindac] + Nc1ncn([C@H]2C[C@H](O)[C@@H](CO)O2)c(=O)n1 [Decitabine] (partner 2 µM)
Summary of the method: as §1

NCI-H2347
relative viability ([1]; first compound 0.005 µM): 0.836 | relative viability ([1]; first compound 0.01581 µM): 0.217 | relative viability ([1]; first compound 0.05 µM): 0.487 | relative viability ([1]; first compound 0.1581 µM): 0.333 | relative viability ([1]; first compound 0.5 µM): 0.357 | relative viability (Sulindac + Pictilisib; first compound 0.08 µM): 0.298 | relative viability (Sulindac + Pictilisib; first compound 0.253 µM): 0.637 | relative viability (Sulindac + Pictilisib; first compound 0.8 µM): 0.503 | relative viability (Sulindac + Pictilisib; first compound 2.53 µM): 0.6 | relative viability (Sulindac + Pictilisib; first compound 8 µM): 0.509 | relative viability ([2]; first compound 0.02 µM): 0.688 | relative viability ([2]; first compound 0.2 µM): 0.44 | relative viability ([2]; first compound 0.6325 µM): 0.407 | relative viability ([2]; first compound 2 µM): 0.363 | relative viability (Sulindac + Decitabine; first compound 0.08 µM): 0.609 | relative viability (Sulindac + Decitabine; first compound 0.253 µM): 0.632 | relative viability (Sulindac + Decitabine; first compound 0.8 µM): 0.548 | relative viability (Sulindac + Decitabine; first compound 2.53 µM): 0.652 | relative viability (Sulindac + Decitabine; first compound 8 µM): 0.636

NCI-H522
relative viability (Sulindac + Decitabine; first compound 0.08 µM): 0.643 | relative viability (Sulindac + Decitabine; first compound 0.253 µM): 0.718 | relative viability (Sulindac + Decitabine; first compound 0.8 µM): 0.652 | relative viability (Sulindac + Decitabine; first compound 2.53 µM): 0.667 | relative viability (Sulindac + Decitabine; first compound 8 µM): 0.687

NCI-H1437
relative viability ([1]; first compound 0.005 µM): 0.449 | relative viability ([1]; first compound 0.01581 µM): 0.25 | relative viability ([1]; first compound 0.05 µM): 0.249 | relative viability ([1]; first compound 0.1581 µM): 0.108 | relative viability ([1]; first compound 0.5 µM): 0.0658 | relative viability (Sulindac + Pictilisib; first compound 0.08 µM): 0.417 | relative viability (Sulindac + Pictilisib; first compound 0.253 µM): 0.504 | relative viability (Sulindac + Pictilisib; first compound 0.8 µM): 0.405 | relative viability (Sulindac + Pictilisib; first compound 2.53 µM): 0.386 | relative viability (Sulindac + Pictilisib; first compound 8 µM): 0.489 | relative viability ([2]; first compound 0.2 µM): 0.183 | relative viability ([2]; first compound 0.6325 µM): 0.116 | relative viability ([2]; first compound 2 µM): 0.1 | relative viability (Sulindac + Decitabine; first compound 0.08 µM): 0.667 | relative viability (Sulindac + Decitabine; first compound 0.253 µM): 0.619 | relative viability (Sulindac + Decitabine; first compound 0.8 µM): 0.547 | relative viability (Sulindac + Decitabine; first compound 2.53 µM): 0.591 | relative viability (Sulindac + Decitabine; first compound 8 µM): 0.568

SK-MES-1
relative viability ([1]; first compound 0.005 µM): 0.328 | relative viability ([1]; first compound 0.01581 µM): 0.265 | relative viability ([1]; first compound 0.05 µM): 0.173 | relative viability ([1]; first compound 0.1581 µM): 0.182 | relative viability ([1]; first compound 0.5 µM): 0.19 | relative viability (Sulindac + Pictilisib; first compound 0.08 µM): 0.368 | relative viability (Sulindac + Pictilisib; first compound 0.253 µM): 0.427 | relative viability (Sulindac + Pictilisib; first compound 0.8 µM): 0.323 | relative viability (Sulindac + Pictilisib; first compound 2.53 µM): 0.362 | relative viability (Sulindac + Pictilisib; first compound 8 µM): 0.459 | relative viability ([2]; first compound 0.02 µM): 0.34 | relative viability ([2]; first compound 0.2 µM): 0.338 | relative viability ([2]; first compound 0.6325 µM): 0.297 | relative viability ([2]; first compound 2 µM): 0.196 | relative viability (Sulindac + Decitabine; first compound 0.08 µM): 0.378 | relative viability (Sulindac + Decitabine; first compound 0.253 µM): 0.418 | relative viability (Sulindac + Decitabine; first compound 0.8 µM): 0.304 | relative viability (Sulindac + Decitabine; first compound 2.53 µM): 0.436 | relative viability (Sulindac + Decitabine; first compound 8 µM): 0.386

NCI-H3122
relative viability ([1]; first compound 0.005 µM): 0.668 | relative viability ([1]; first compound 0.01581 µM): 0.306 | relative viability ([1]; first compound 0.05 µM): 0.566 | relative viability ([1]; first compound 0.1581 µM): 0.441 | relative viability ([1]; first compound 0.5 µM): 0.118 | relative viability (Sulindac + Pictilisib; first compound 0.08 µM): 0.675 | relative viability (Sulindac + Pictilisib; first compound 0.253 µM): 0.602 | relative viability (Sulindac + Pictilisib; first compound 0.8 µM): 0.592 | relative viability (Sulindac + Pictilisib; first compound 2.53 µM): 0.627 | relative viability (Sulindac + Pictilisib; first compound 8 µM): 0.621 | relative viability ([2]; first compound 0.02 µM): 0.608 | relative viability ([2]; first compound 0.2 µM): 0.662 | relative viability ([2]; first compound 0.6325 µM): 0.312 | relative viability ([2]; first compound 2 µM): 0.256 | relative viability (Sulindac + Decitabine; first compound 0.08 µM): 0.409 | relative viability (Sulindac + Decitabine; first compound 0.253 µM): 0.385 | relative viability (Sulindac + Decitabine; first compound 0.8 µM): 0.352 | relative viability (Sulindac + Decitabine; first compound 2.53 µM): 0.435 | relative viability (Sulindac + Decitabine; first compound 8 µM): 0.439

NCI-H1299
relative viability ([1]; first compound 0.005 µM): 0.121 | relative viability ([1]; first compound 0.01581 µM): 0.119 | relative viability ([1]; first compound 0.05 µM): 0.109 | relative viability ([1]; first compound 0.1581 µM): 0.0457 | relative viability ([1]; first compound 0.5 µM): 0.0455 | relative viability (Sulindac + Pictilisib; first compound 0.08 µM): 0.671 | relative viability (Sulindac + Pictilisib; first compound 0.253 µM): 0.9 | relative viability (Sulindac + Pictilisib; first compound 0.8 µM): 0.651 | relative viability (Sulindac + Pictilisib; first compound 2.53 µM): 0.778 | relative viability (Sulindac + Pictilisib; first compound 8 µM): 0.878 | relative viability ([2]; first compound 0.02 µM): 0.953 | relative viability ([2]; first compound 0.2 µM): 0.634 | relative viability ([2]; first compound 0.6325 µM): 0.474 | relative viability ([2]; first compound 2 µM): 0.248

NCI-H1563
relative viability ([1]; first compound 0.005 µM): 0.749 | relative viability ([1]; first compound 0.01581 µM): 0.594 | relative viability ([1]; first compound 0.05 µM): 0.577 | relative viability ([1]; first compound 0.1581 µM): 0.498 | relative viability ([1]; first compound 0.5 µM): 0.433 | relative viability (Sulindac + Pictilisib; first compound 0.08 µM): 0.609 | relative viability (Sulindac + Pictilisib; first compound 0.253 µM): 0.662 | relative viability (Sulindac + Pictilisib; first compound 0.8 µM): 0.665 | relative viability (Sulindac + Pictilisib; first compound 2.53 µM): 0.65 | relative viability (Sulindac + Pictilisib; first compound 8 µM): 0.622 | relative viability ([2]; first compound 0.02 µM): 0.662 | relative viability ([2]; first compound 0.2 µM): 0.601 | relative viability ([2]; first compound 0.6325 µM): 0.647 | relative viability ([2]; first compound 2 µM): 0.671

Calu-6
relative viability ([1]; first compound 0.005 µM): 0.584 | relative viability ([1]; first compound 0.01581 µM): 0.298 | relative viability ([1]; first compound 0.05 µM): 0.222 | relative viability ([1]; first compound 0.1581 µM): 0.0573 | relative viability ([1]; first compound 0.5 µM): 0.0441 | relative viability (Sulindac + Pictilisib; first compound 0.08 µM): 1.03 | relative viability (Sulindac + Pictilisib; first compound 0.253 µM): 0.989 | relative viability (Sulindac + Pictilisib; first compound 0.8 µM): 0.799 | relative viability (Sulindac + Pictilisib; first compound 2.53 µM): 0.949 | relative viability (Sulindac + Pictilisib; first compound 8 µM): 1.17 | relative viability ([2]; first compound 0.02 µM): 1.08 | relative viability ([2]; first compound 0.2 µM): 0.948 | relative viability ([2]; first compound 0.6325 µM): 0.836 | relative viability ([2]; first compound 2 µM): 0.485

EBC-1
relative viability ([1]; first compound 0.005 µM): 0.167 | relative viability ([1]; first compound 0.01581 µM): 0.112 | relative viability ([1]; first compound 0.05 µM): 0.126 | relative viability ([1]; first compound 0.1581 µM): 0.154 | relative viability ([1]; first compound 0.5 µM): 0.139 | relative viability (Sulindac + Pictilisib; first compound 0.08 µM): 0.382 | relative viability (Sulindac + Pictilisib; first compound 0.253 µM): 0.422 | relative viability (Sulindac + Pictilisib; first compound 0.8 µM): 0.343 | relative viability (Sulindac + Pictilisib; first compound 2.53 µM): 0.342 | relative viability (Sulindac + Pictilisib; first compound 8 µM): 0.49 | relative viability ([2]; first compound 0.02 µM): 0.319 | relative viability ([2]; first compound 0.2 µM): 0.33 | relative viability ([2]; first compound 0.6325 µM): 0.46 | relative viability ([2]; first compound 2 µM): 0.329

NCI-H1648
relative viability (Sulindac + Decitabine; first compound 0.08 µM): 0.641 | relative viability (Sulindac + Decitabine; first compound 0.253 µM): 0.558 | relative viability (Sulindac + Decitabine; first compound 2.53 µM): 0.462 | relative viability (Sulindac + Decitabine; first compound 8 µM): 0.452

NCI-H1703
relative viability ([1]; first compound 0.005 µM): 0.223 | relative viability ([1]; first compound 0.01581 µM): 0.175 | relative viability ([1]; first compound 0.05 µM): 0.191 | relative viability ([1]; first compound 0.1581 µM): 0.163 | relative viability ([1]; first compound 0.5 µM): 0.114 | relative viability (Sulindac + Pictilisib; first compound 0.08 µM): 0.229 | relative viability (Sulindac + Pictilisib; first compound 0.253 µM): 0.238 | relative viability (Sulindac + Pictilisib; first compound 0.8 µM): 0.219 | relative viability (Sulindac + Pictilisib; first compound 2.53 µM): 0.229 | relative viability (Sulindac + Pictilisib; first compound 8 µM): 0.291 | relative viability ([2]; first compound 0.02 µM): 0.283 | relative viability ([2]; first compound 0.2 µM): 0.25 | relative viability ([2]; first compound 0.6325 µM): 0.275 | relative viability ([2]; first compound 2 µM): 0.24

SW 900
relative viability (Sulindac + Decitabine; first compound 0.08 µM): 0.449 | relative viability (Sulindac + Decitabine; first compound 0.253 µM): 0.432 | relative viability (Sulindac + Decitabine; first compound 8 µM): 0.489

NCI-H2342
relative viability (Sulindac + Decitabine; first compound 0.08 µM): 0.681 | relative viability (Sulindac + Decitabine; first compound 0.253 µM): 0.706 | relative viability (Sulindac + Decitabine; first compound 0.8 µM): 0.591 | relative viability (Sulindac + Decitabine; first compound 2.53 µM): 0.648 | relative viability (Sulindac + Decitabine; first compound 8 µM): 0.786
